This is an account of results in US20260216144A1, “TARGETING MB2 OF THE MYC ONCOGENE AND ITS INTERACTION WITH TRRAP IN CANCER” (priority 2019, published 2026).

The test deals with MYC:TRRAP interaction (Homo sapiens, UniProt P01106+Q9Y4A5). Description: MYC:TRRAP in-cell luminescence complementation assay (NanoBiT; SmB-MYC 1-190 and TRRAP 2033-2283-LgB in HeLa cells). The test is classed as cell-based. The method, then: HeLa cells plated on Greiner 96-well TC-rated white plates with clear bottoms were used for the following measurements. Reverse transfections were carried out using LipoD293™ before cells were plated. A bluescript KS' plasmid (Addgene) was used as carrier DNA for transfections, and a pcDNA3.1 EGFP plasmid (ThermoFisher) was used as a fluorescence reporter. White light-reflecting film (USA Scientific) was used to cover the bottom of the plates for luminescence measurements. Black light-absorbing film was used to cover the top of the plates for fluorescence measurements. All measurements were taken on a SpectraMax i3 instrument (Molecular Devices).
Transfections were carried out with increasing DNA amounts (1-100 ng per well) of a CMV-driven LgB plasmid and SmB in excess or vice-versa. Background luminesce for the usable range and the amount of DNA needed for vast excess of LgB or SmB were noted. Next, complementation with vast excess either LgB or SmB was used to determine the expression of each of the indicated MYC and TRRAP constructs for a range of DNA amounts per well: 10-100 ng. An optimal ratio of DNA to equalize the expression of each MYC and TRRAP pair was calculated. Then, signal-to-noise ratios were calculated for the indicated MYC and TRRAP pairs, and the pair with the highest ratio was chosen. Finally, the chosen pair was used to determine the optimal DNA transfection mixture. It was determined to be 6.7 ng of a plasmid with a MYC construct, 60 ng of a plasmid with a TRRAP construct and 33.3 ng of the pcDNA 3.1 EGFP plasmid, for each well in a 96-well plate. Unless otherwise indicated, these were the ratios of DNA transfected for this type of assay.
HeLa cells were transfected as above using LipoD293™ with a mixture of SmB-MYC 1-190, TRRAP 2033-2283-LgB, and EGFP in CMV-driven plasmids at the same optimized ratio described above. Two days post-transfection, the media in each well was replaced with fresh media containing each compound from the NCI's sets at 25 μM. Cells were incubated for 2 h with each compound, and luminescence and fluorescence measurements were recorded for each well. Changes in luminescence were normalized to fluorescence. The following pre-plated compound sets were obtained from the NCI/DTP chemical repository and used for this screen:
These chemical sets were used to discover novel small-molecule inhibitors of the MYC:TRRAP complex. SmB-MYC 1-190, TRRAP 2033-2283-LgB, and EGFP were transfected into HeLa cells. Two days post-transfection, compounds were added to the media at 25 μM and cells were incubated for 2h. Luminescence and fluorescence were recorded for each well containing one of the compounds. Changes in luminescence measurements were normalized to fluorescence measurements.
Afterwards, only molecules that reduced luminescence levels to <50% RLU were considered. This set of 46 compounds were incubated at 10 μM with vector-expressing cells. Luminescence complementation was measured and repeated in triplicate measurements. In addition, HeLa cells expressing LgB and SmB alone were incubated with the same compounds to rule out potentially artificial results due to inhibition of luciferase or its complementation. Molecules that induces any significant reduction in luminescence (<0.6) during this control assay were not considered further. Of 2947 molecules, 17 were chosen for further testing and ordered from the NCI/DTP Open Chemical Repository. FIG. 16 describes these chosen compounds.
Using the luminescence assay above as a readout for the MYC:TRRAP interaction, we used a robotic liquid handler to evaluate 2987 additional compounds (25 μM). All primary hits were counter-screened for any activity against the luciferase enzyme itself and for any effects on the expression of the fusion proteins. We set a threshold of 50% inhibition to consider compounds further. Only 17 out of 2987 passed all these criteria (0.6%). […]

[1] abbreviates: Table 1, 46 primary hits at 10 uM, HeLa cells, triplicate measurements.
Where [2] appears, read: Table 2, compounds with >80% similarity to compound 10 (NSC657456), 10 uM.

The structures appear in SMILES notation.

Chain of MYC:TRRAP interaction (P01106 16-205): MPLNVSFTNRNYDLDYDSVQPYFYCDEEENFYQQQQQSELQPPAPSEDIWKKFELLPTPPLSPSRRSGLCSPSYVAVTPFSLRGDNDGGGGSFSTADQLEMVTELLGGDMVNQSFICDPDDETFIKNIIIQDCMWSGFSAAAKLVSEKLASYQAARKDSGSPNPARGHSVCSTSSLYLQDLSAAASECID
Chain of MYC:TRRAP interaction (Q9Y4A5 2051-2301): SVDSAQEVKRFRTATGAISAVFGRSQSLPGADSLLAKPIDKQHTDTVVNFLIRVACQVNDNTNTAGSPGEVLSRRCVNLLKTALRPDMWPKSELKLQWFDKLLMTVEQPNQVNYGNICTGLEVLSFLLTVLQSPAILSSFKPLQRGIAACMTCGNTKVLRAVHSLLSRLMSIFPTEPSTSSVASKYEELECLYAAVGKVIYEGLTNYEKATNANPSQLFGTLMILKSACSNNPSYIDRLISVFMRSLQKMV

As to `CC1(C)CCC2=C(O1)c1ccccc1C(=O)C2=O` [Compound 40, 2,2-dimethyl-3,4-dihydrobenzo[h] chromene-5,6-dione], the “% Inhibition 10 uM” value under setting [1] is on record as 76.06%.

As for `COc1cc(/N=N/c2cccc(S(N)(=O)=O)c2)c2ccccc2c1N` [Compound 41, 3-[(4-amino-3-methoxy-naphthalen-1-yl)diazenyl] benzene-sulfonamide], under setting [1], the “% Inhibition 10 uM” value is listed as 78.97%.

As for `COC(=O)[C@H]1[C@H]2C[C@@H]3c4[nH]c5ccccc5c4CCN3C[C@H]2C[C@@H](OC(=O)c2cc(OC)c(OC)c(OC)c2)[C@@H]1OC` [Compound 42, methyl (1R,15S,17R,18R, 19S,20S)-18-methoxy-17-(3,4,5-trimethoxybenzoyl) oxy-1,3,11,12,14,15,16, 17,18,19,20,21-dodecahydro-yohimban-19-carboxylate], under setting [1], the “% Inhibition 10 uM” value was found to be 102.5%.

With `CN(C)c1ccc2c(c1)Sc1cc(N(C)C)ccc1N2C(=O)c1ccccc1` [Compound 44, [3,7-bis(dimethylamino)phenothiazin-10-yl]-phenylmethanone], the “% Inhibition 10 uM” value under setting [1] was 93.68%.

On to `COc1c2c(cc3c1C1Oc4c(ccc(O)c4CC=C(C)C)C1CO3)OC(C)(C)C=C2` (centres unmarked) [Compound 45, 21-methoxy-17,17-dimethyl-5-(3-methylbut-2-enyl)-3,12,16-trioxapentacyclo [11.8.0.02,10.04, 9.015,20] henicosa-1(13),4(9),5,7, 14,18, 20-heptaen-6-ol], for which the “% Inhibition 10 uM” value under setting [1] is on record as 85.82%.

For the molecule `N=C(S)/N=N/c1c(O)[nH]c2ccccc12` [Compound 101, (2-hydroxy-1H-indol-3-yl)iminothiourea], the “% Inhibition 10 uM” value under setting [2] is 104.5%.

`N=C(/N=N/c1c(O)[nH]c2ccccc12)N[N+](=O)[O-]` [Compound 102, 1-[(2-hydroxy-1H-indol-3-yl)imino]-3-nitroguanidine]: under setting [2], the “% Inhibition 10 uM” value is 100.4%.

As to `N=C(/N=N/c1c(O)[nH]c2ccccc12)C(=N)/N=N/c1c(O)[nH]c2ccccc12` [Compound 103, 1-N,2-N-bis[(2-hydroxy-1H-indol-3-yl)imino]ethane-diimidamide], the “% Inhibition 10 uM” value under setting [2] is 88.83%.

As for `N=C(N)/N=N/c1c(O)[nH]c2ccccc12` [Compound 104, 1-[(2-hydroxy-1H-indol-3-yl)imino] guanidine], the “% Inhibition 10 uM” value under setting [2] is 123.9%.

On to `Oc1[nH]c2ccccc2c1/N=N/C(S)=N/c1ccccc1` [Compound 105, 1-[(2-hydroxy-1H-indol-3-yl)imino]-3-phenylthiourea], for which, under setting [2], the “% Inhibition 10 uM” value is 65.25%.

Consider `NC(=O)/N=N/c1c(O)n(O)c2ccccc12` [Compound 106, (1,2-dihydroxyindol-3-yl)iminourea], for which, under setting [2], the “% Inhibition 10 uM” value was 127.3%.

Consider `NC(=O)/N=N/c1c(O)[nH]c2ccccc12` [Compound 107, (2-hydroxy-1H-indol-3-yl)iminourea], for which the “% Inhibition 10 uM” value under setting [2] came to 112.6%.

For `CN(C)C(=S)/N=N/c1c(O)[nH]c2ccccc12` [Compound 108], the “% Inhibition 10 uM” value under setting [2] worked out at 86.25%.

Turning to `O=[N+]([O-])c1ccc(/N=N/c2c(O)[nH]c3ccccc23)cc1` [Compound 109, 3-[(4-nitrophenyl)diazenyl]-1H-indol-2-ol], the “% Inhibition 10 uM” value under setting [2] is 54.48%.

As for `Cc1ccccc1/N=N/c1c(O)[nH]c2ccccc12` [Compound 1010, 3-[(2-methylphenyl)diazenyl]-1H-indol-2-ol], the “% Inhibition 10 uM” value under setting [2] was determined as 94.76%.

For the molecule `Oc1[nH]c2ccccc2c1/N=N/c1ccccc1Cl` [Compound 1011, 3-[(2-chlorophenyl)diazenyl]-1H-indol-2-ol], the “% Inhibition 10 uM” value under setting [2] worked out at 64.75%.

Take `Oc1[nH]c2ccccc2c1/N=N/c1ccccc1` [Compound 1012, 3-phenyldiazenyl-1H-indol-2-ol]: under setting [2], the “% Inhibition 10 uM” value was determined as 66.53%.

With `O=C(/N=N/c1c(O)[nH]c2ccccc12)Nc1ccccc1` [Compound 1013, 1-[(2-hydroxy-1H-indol-3-yl)imino]-3-phenylurea], under setting [2], the “% Inhibition 10 uM” value came to 83.25%.

For `CCOC(=O)/N=N/c1c(O)[nH]c2ccccc12` [Compound 1014, ethyl N-[(2-hydroxy-1H-indol-3-yl)imino] carbamate], the “% Inhibition 10 uM” value under setting [2] is 107.3%.

`N=C(S)/N=N/c1c(O)[nH]c2cccc(C(F)(F)F)c12` [Compound 1015, [2-hydroxy-4-(trifluoro-methyl)-1H-indol-3-yl]iminothiourea]: the “% Inhibition 10 uM” value under setting [2] came to 82.44%.

As to `O=C1CSC(/N=N/c2c(O)[nH]c3ccccc23)=N1` [Compound 1016, 2-[(2-hydroxy-1H-indol-3-yl)diazenyl]-1,3-thiazol-4-one], the “% Inhibition 10 uM” value under setting [2] was 104.5%.

`N#CC(=N)/C(C#N)=N/c1c(O)[nH]c2ccccc12` [Compound 1017, N′-(2-hydroxy-1H-indol-3-yl)ethane-diimidoyl dicyanide]: the “% Inhibition 10 uM” value under setting [2] is 89.13%.

As for `C=CC/N=C(S)/N=N/c1c(O)[nH]c2ccccc12` [Compound 1018], the “% Inhibition 10 uM” value under setting [2] is 77.04%.

Consider `O=C(/N=N/c1c(O)[nH]c2ccccc12)C(F)(F)F` [Compound 1019, 2,2,2-trifluoro-N-[(2-hydroxy-1H-indol-3-yl)imino] acetamide], for which, under setting [2], the “% Inhibition 10 uM” value is reported as 82.34%.

Take `Oc1[nH]c2ccccc2c1/N=N/C1=NCCN1` [Compound 1020, 3-(4,5-dihydro-1H-imidazol-2-yldiazenyl)-1H-indol-2-ol]: under setting [2], the “% Inhibition 10 uM” value amounted to 91.72%.

For the molecule `Nn1c(S)nnc1/N=N/c1c(O)[nH]c2ccccc12` [Compound 1021, 4-amino-3-[(2-hydroxy-1H-indol-3-yl)diazenyl]-1H-1,2,4-triazole-5-thione], under setting [2], the “% Inhibition 10 uM” value came out at 71.88%.

For the molecule `O=[N+]([O-])c1cccc(-c2csc(/N=N/c3c(O)[nH]c4ccccc34)n2)c1` [Compound 1022, 3-[[4-(3-nitrophenyl)-1,3-thiazol-2-yl]diazenyl]-1H-indol-2-ol], the “% Inhibition 10 uM” value under setting [2] amounted to 54.58%.

As for `O=[N+]([O-])c1ccc(-c2csc(N=Nc3c(O)[nH]c4ccccc34)n2)cc1` [Compound 1023, 3-[[4-(4-nitrophenyl)-1,3-thiazol-2-yl]diazenyl]-1H-indol-2-ol], under setting [2], the “% Inhibition 10 uM” value is on record as 47.93%.

Take `Oc1[nH]c2ccccc2c1/N=N/c1nc(-c2ccc(Cl)c(Cl)c2)cs1` [Compound 1025, 3-[[4-(3,4-dichlorophenyl)-1,3-thiazol-2-yl]diazenyl]-1H-indol-2-ol]: the “% Inhibition 10 uM” value under setting [2] was found to be 53.24%.

On to `CCOC(=O)Cc1csc(/N=N/c2c(O)[nH]c3ccccc23)n1` [Compound 1026, ethyl 2-[2-[(2-hydroxy-1H-indol-3-yl)diazenyl]-1,3-thiazol-4-yl] acetate], for which the “% Inhibition 10 uM” value under setting [2] is 59.51%.

`Cc1sc(/N=N/c2c(O)[nH]c3ccccc23)nc1-c1ccccc1` [Compound 1027, 3-[(5-methyl-4-phenyl-1,3-thiazol-2-yl)diazenyl]-1H-indol-2-ol]: under setting [2], the “% Inhibition 10 uM” value came out at 50.66%.

As for `O=C(Cc1csc(/N=N/c2c(O)[nH]c3ccccc23)n1)Nc1ccccc1` [Compound 1028, 2-[2-[(2-hydroxy-1H-indol-3-yl)diazenyl]-1,3-thiazol-4-y]-N-phenylacetamide], the “% Inhibition 10 uM” value under setting [2] was determined as 97.46%.

With `Cc1ccccc1NC(=O)Cc1csc(/N=N/c2c(O)[nH]c3ccccc23)n1` [Compound 1029], the “% Inhibition 10 uM” value under setting [2] was found to be 98.07%.

With `CCCNC(=S)N=Nc1c(O)[nH]c2ccccc12` [Compound 1032, 1-[(2-hydroxy-1H-indol-3-yl)imino]-3-propylthiourea], the “% Inhibition 10 uM” value under setting [2] was found to be 88.62%.

Consider `Oc1[nH]c2ccccc2c1/N=N/C(=S)N1CCCC1` [Compound 1033, N-((2-hydroxy-1H-indol-3-yl)imino] pyrrolidine-1-carbothioamide], for which the “% Inhibition 10 uM” value under setting [2] is listed as 86.96%.
